Entries after “also recorded” stand apart in the source; their conditions may differ.
Experiments:
[1] = system: baboon vascular grafts (graft intimal hyperplasia); experiment: Inhibition of graft intimal hyperplasia by polyamine infusion, baboon aortoiliac bypass graft model; format: in vivo; design: thickness of grafts, Left Proximal Ave. / thickness of grafts, Left Distal Ave. (Treated site): unit not given here; settings: for thickness of grafts, Left Distal Ave. (Treated site): left distal anastomosis infused with polyamine; for thickness of grafts, Left Distal Ave. (Treated site) / thickness of grafts, Left Proximal Ave.: pump 2.5 ul/hr for 28 days, one animal per line; for thickness of grafts, Left Proximal Ave.: polyamine-infused left graft, proximal anastomosis upstream of polyamine administration
Method: The procedure of Chen et al., Journal of Vascular Surgery 31(2):354 (2000) was used to prepare the animals. Briefly, baboons underwent bilateral aortoiliac bypass grafting with expanded polytetrafluoroethylene grafts. The distal anastomosis of one graft (the left graft) was infused with polyamine; the distal anastomosis of the contralateral graft (right graft) was infused with placebo (saline). The drugs were infused with the Alzet 2ML4 pump at a flow rate of 2.5 ul/hr for 28 days. For administration of CGC-11093, the pump contained 4.4 mg/ml (10 mM) drug and delivered 266 ug/day (7.5 mg in 28 days). For administration of CGC-11159, drug concentration was also at 10 mM; the pump delivered 646.2 ug/day (18.1 mg in 28 days). After 28 days the grafted vessels were harvested and analyzed. All anastomosis/graft samples were harvested by in vivo pressure-perfusion fixation with 10% Neutral Buffered Formalin (NBF) and fixed further overnight in 10% NBF. Samples were cut into several sections (noting proximal and distal) and marked with green dye for standard overnight processing. Processed samples were embedded in paraffin sectioned at […] intervals and stained with conventional hematoxylin and eosin (H&E). For morphometric measurements and analysis, H&E sections were imaged with a Nikon EFD-3 microscope with darkfield and polarized light epiluminescence and an RT Slider Diagnostic Camera. Graft and vessel sections were analyzed with respect to total neointimal area and maximal thickness. Morphometric analysis was performed using Image-Pro Plus 4.5 (Media Cybernetics) software. All images were digitized and archived.

[2] = system: pig femoral AV grafts (graft vein anastomosis/proximal vein, venous neointimal hyperplasia); experiment: Histopathology of PTA-injured porcine arteriovenous (AV) grafts with perivascular drug infusion; format: in vivo; settings: for decrease in luminal stenosis versus placebo: perivascular injections, summary of results, dose not given
Method: This example was performed to determine the effect of injections of CGC-11093 and CGC-11159 on the vasculature of pigs following arteriovenous grafting. The histopathology of reactive and inflammatory responses of pig femoral AV grafts 14 days after Mercator Microsyringe infusion with 1 mg CGC-11093 (6 sites), 10 mg CGC-11093 (2 sites), 10 mg CGC-11159 (8 sites), or placebo saline injection (8 sites) in conjunction with percutaneous transluminal angioplasty (PTA) of the graft vein anastomosis and the proximal vein was assessed.
The methods used were as follows: all graft-vein anastomosis/proximal vein (GVA/PV) sites were subjected to angioplasty and perivascular injection via Mercator Microsyringe. Angioplasty was performed and drugs were infused 14 days after graft implant; animals were sacrificed 14 days later for histopathological examination. A total of 24 GVA/PV sites were evaluated. Six sites received 1 mg of CGC-11093; two sites received 10 mg CGC-11093, eight sites received 10 mg of CGC-11159, and eight sites received placebo injection with saline. All injections were performed in conjunction with percutaneous transluminal angioplasty (PTA) of the GVA and PV.
After 14 days, the graft vein anastomosis sites (GVA/PV) were excised en bloc and perfused with formalin. Sectioning of the graft vein anastomosis was performed as follows: briefly, tissue sections were taken at approximately 5 mm intervals through the proximal vein (PV). Tissue sections were taken at approximately 3 mm intervals through the graft-vein anastomosis (GVA) site. Sections were taken at approximately […] intervals through the distal vein (DV). All tissues were routinely processed, embedded in paraffin, sectioned at 5 microns and stained with hematoxylin and eosin for histopathologic evaluation. Numerous histologic sections through each PV, DV and GVA were evaluated. Each section was labeled with the letter P, G, or D (P=proximal vein, G=graft vein anastomosis, and D=Distal vein) and with a corresponding number to indicate proximity to the graft vein anastomosis.
The histopathologic evaluation included a general description of relevant features regardirig tissue reaction and inflammation around the graft vein anastomosis (GVA) and through the proximal femoral vein (PV). Histopathologic features including inflammation, fibrosis, angiogenesis and venous neointimal hyperplasia (VNH) within the GVA and PV were assessed. Attempts were made to differentiate between histopathologic changes attributed to the surgical procedure, secondary affects of GVA, angioplasty and perivascular injection of drug via Mercator Microsyringe.
Initial histopathologic evaluation was performed on all tissues to define the common inflammatory and reactive changes in all specimens. An overall general description of changes in sections of PV and GVA was made. An estimate of the percent occlusion of the most severely affected segment in both the PV and GVA was made. Two precise, perpendicular cross sectional measurements of the lumen were made in the most severely affected section of the PV. In the GVA a single luminal diameter was measured in the most severely affected section. Next, a qualitative assessment of overall severity of VNH, as well as inflammation within the VNH and degree of angiogenesis within the VNH was made for both the PV and the GVA. Additionally, a general description of the overall perivascular tissue reaction around the PV and the GVA was recorded. Lastly, unique, and potentially significant, pathologic features were documented. Unique pathologic features generally included interpretation of the overall severity of the changes, presence or absence of an inflamed seroma, or presence of thrombosis or infection in the GVA or PV. When assessing the degree or severity of a certain histopathologic change (i.e. severity of VNH, etc) a qualitative scoring method was used. A score of 0=absent, 1=minimal, 2=mild, 3=moderate, 4=severe.

CCCCCNCCCCNCC1CC1CNCCCCNCC (racemic) [CGC-11302, N-{2-[(4-Ethylamino-butylamino)-methyl]-cyclopropylmethyl}-N′-pentyl-butane-1,4-diamine]
thickness of grafts, Left Distal Ave. (Treated site) [1]: 0.822
thickness of grafts, Left Proximal Ave. [1]: 1.047

CCNCCCCNCC1CC1CNCCCCNCC (stereo not shown) [CGC-11093]
degree of VNH angiogenesis, summary ([2]; 1 mg): minimal to absent VNH angiogenesis
histopathologic features/changes, summary ([2]; 1 mg): fewer significant or potentially deleterious histopathologic features; also recorded: less severe histopathologic changes
severity of VNH inflammation, summary ([2]; 1 mg): minimal VNH inflammation
severity of overall VNH in PV and GVA, summary ([2]; 1 mg): minimal amount of VNH in both the PV and GVA
vascular occlusion, summary ([2]; 1 mg, compared with other animals in the study): less severe vascular occlusion than other animals in the study
decrease in luminal stenosis versus placebo [2]: 49.2%
thickness of grafts, Left Distal Ave. (Treated site) [1]: 1.072
thickness of grafts, Left Proximal Ave. [1]: 0.499

CCNCCCCNCC1CC1CNCCCCNCC (stereo not shown) [CGC-11098]
thickness of grafts, Left Distal Ave. (Treated site) [1]: 1.778
thickness of grafts, Left Proximal Ave. [1]: 0.938

CCNCCCCNCCCCNCCCCNCCCCNCCCCNCCCCNCCCCNCCCCNCCCCNCC [CGC-11159, CH3CH2—NH—(CH2CH2CH2CH2—NH—)9—CH2CH3]
degree of VNH angiogenesis in PV and GVA, summary ([2]; 10 mg): greater degree of VNH angiogenesis in the PV and GVA
incidence of GVA/PV thrombosis ([2]; 10 mg): higher incidence of GVA/PV thrombosis
luminal diameter of PV, summary ([2]; 10 mg): more likely to have a smaller luminal diameter
perivascular tissue reaction (inflammation around the graft) ([2]; 10 mg): prominent, nodular lymphofollicular inflammation forming a rim surrounding the outside surface of the graft; also recorded: prominent, nodular to coalescing lymphocytic inflammation around the implanted graft material; also recorded: more prominent abnormal perivascular tissue reactions
severity of overall VNH in PV and GVA, summary ([2]; 10 mg): more severe VNH in both the PV and GVA
unique histopathologic features, summary ([2]; 10 mg): often developed luminal thrombosis of both the PV and GVA as well as prominent lymphofollicular inflammation surrounding the graft material
sites that developed fibrin thrombosis within the graft, with some degree of vascular and/or graft occlusion ([2]; 10 mg, eight sites treated): five of eight
luminal occlusion or stenosis of the PV and GVA, summary ([2]; 10 mg, most animals, generally associated with thrombosis of the graft): more severe luminal occlusion or stenosis of the PV and GVA
severity of VNH inflammation, summary ([2]; 10 mg, probably associated with thrombus formation): greater severity of VNH inflammation
decrease in luminal stenosis versus placebo [2]: 22.6%
decrease in average maximal thickness of hyperplasia in the vascular graft ([1]; left distal anastomosis compared with placebo-treated grafts (right proximal and distal anastomoses), 10 mM, 646.2 ug/day for 28 days): ~50%
thickness of grafts, Left Distal Ave. (Treated site) [1]: 0.336
thickness of grafts, Left Proximal Ave. [1]: 0.695
